The structures appear in SMILES notation. *1 amine or outer side, *2 acyl side, *3 side chain or, on linkers, in order; H or OH if unused. Where a SMILES comes first, the peptide text is derived from it. Side-chain parts run from the residue outwards. The star is where a group is joined. C18 diacid = O=C(O)CCCCCCCCCCCCCCCCC(=O)*; γGlu = O=C(O)[C@H](CCC(=O)[*:2])N[*:1]; Isovaleryl = CC(C)CC(=O)*; AEEA = NCCOCCOCC(=O)O

This assay addresses T1, Human Neuropeptide Y2 Receptor (Homo sapiens, UniProt P49146).
T1 construct: purchased CHEMICON HTS066M
T1 sequence (P49146 1-381): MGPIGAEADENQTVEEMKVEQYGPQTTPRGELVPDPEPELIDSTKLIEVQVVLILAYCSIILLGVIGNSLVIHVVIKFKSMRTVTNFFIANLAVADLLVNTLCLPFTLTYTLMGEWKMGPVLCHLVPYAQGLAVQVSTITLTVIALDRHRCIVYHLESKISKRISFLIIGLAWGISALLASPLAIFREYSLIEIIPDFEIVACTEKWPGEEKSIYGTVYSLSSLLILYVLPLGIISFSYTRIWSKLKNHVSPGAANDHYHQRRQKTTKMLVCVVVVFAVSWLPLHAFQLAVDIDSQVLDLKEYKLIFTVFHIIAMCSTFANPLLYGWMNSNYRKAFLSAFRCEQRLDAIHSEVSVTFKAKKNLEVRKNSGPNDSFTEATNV
Put plainly: Radioligand binding competition assay (RLB). The note with it: Table 3; human 125I-PYY (1-36) 0.02 nM, Y2 receptor membranes; read-out: Ki. The procedure:
The filtration RLB assay was carried out in 96-well plates in a final volume of 100 μl per well. Freeze-dried test peptides were dissolved in 100% dimethyl sulfoxide (DMSO) to stock solutions of 1 mM and serial dilutions were performed in assay buffer (50 mM HEPES, 5 mM MgCl2, 1 mM CaCl2), pH 7.4) containing 0.2% ovalbumin. […] Next, 80 μL membranes (HTS066M, ChemiSCREEN™ Human Neuropeptide Y2 Receptor Membrane Preparation, CHEMICON) were added to each well to give a final protein concentration of 0.5 μg/well. The plates were sealed and incubated at room temperature for 2 hours in a plate shaker set at 400 rpm. The incubation was stopped by vacuum filtration onto 0.5% poly-ethylene amine (PEI) presoaked GF/C filters using a 96-well FilterMate™ harvester (Perkin Elmer) followed by four washes with 300 μl/well ice-cold wash buffer (50 mM HEPES, 500 mM NaCl, pH7.4). Filter plates were then dried for 60 min at room temperature and the bottom of the plates was sealed with backing tape UniFilter-96. Finally, 50 μl/well scintillation counter cocktail (Microscint20, Packard) was added and the radioactivity was counted in the Packard TopCount NXT scintillation counter. IC50 values (the half maximal inhibitory concentration of the agonist) were calculated by nonlinear regression analysis of sigmoidal dose-response curves.

The Ki is the dissociation constant of the complex between target and ligand, obtained from inhibition or displacement. For `CC(C)CC(=O)N[C@@H](C)C(=O)N1CCC[C@H]1C(=O)N[C@@H](CCC(=O)O)C(=O)N[C@@H](CCCCNC(=O)COCCOCCNC(=O)COCCOCCNC(=O)CC[C@H](NC(=O)CCCCCCCCCCCCCCCCC(=O)O)C(=O)O)C(=O)N1CCC[C@H]1C(=O)N[C@@H](CCC(=O)O)C(=O)N[C@@H](CCC(=O)O)C(=O)N[C@@H](CC(=O)O)C(=O)N[C@@H](C)C(=O)N[C@@H](CCC(N)=O)C(=O)N1CCC[C@H]1C(=O)N[C@@H](CCC(=O)O)C(=O)N[C@@H](CCC(=O)O)C(=O)N[C@@H](CC(C)C)C(=O)N[C@@H](CCC(N)=O)C(=O)N[C@@H](CCC(=O)O)C(=O)N[C@@H](Cc1ccc(O)cc1)C(=O)N[C@@H](Cc1ccc(O)cc1)C(=O)N[C@H](C(=O)N[C@@H](CO)C(=O)N[C@@H](CC(C)C)C(=O)N[C@@H](CCCNC(=N)N)C(=O)N[C@@H](Cc1c[nH]cn1)C(=O)N[C@@H](Cc1ccc(O)cc1)C(=O)N[C@@H](Cc1ccc(O)cc1)C(=O)N[C@@H](CC(N)=O)C(=O)N[C@@H](Cc1c[nH]c2ccccc12)C(=O)N[C@@H](CC(C)C)C(=O)N[C@H](C(=O)N[C@@H](CCCNC(=N)N)C(=O)N[C@@H](CCC(N)=O)C(=O)N[C@@H](CCCNC(=N)N)C(=O)N[C@@H](Cc1ccc(O)cc1)C(N)=O)[C@@H](C)O)C(C)C` [Compound 1, N{alpha-4}-(3-methylbutanoyl)-N{epsilon-7}-[2-(2-{2-[2-(2-{2-[(4S)-4-carboxy-4-(17-carboxyheptadecanamido)butanamido]ethoxy}ethoxy)acetamido]ethoxy}ethoxy)acetamido]-[4A,7K,9E,13Q,18Q,19E,22V,28Y,30W,31L]hPYY (4-36)] (Isovaleryl-APEK([AEEA-AEEA-γGlu-C18 diacid])PEEDAQPEELQEYYVSLRHYYNWLTRQRY-NH2), the Ki turned out to be 2.5 nM.

For `CC(C)CC(=O)N[C@@H](C)C(=O)N1CCC[C@H]1C(=O)N[C@@H](CCC(=O)O)C(=O)N[C@@H](CCCCNC(=O)COCCOCCNC(=O)COCCOCCNC(=O)CC[C@H](NC(=O)CCCCCCCCCCCCCCCCC(=O)O)C(=O)O)C(=O)N1CCC[C@H]1C(=O)N[C@@H](CCC(=O)O)C(=O)N[C@@H](CCC(=O)O)C(=O)N[C@@H](CC(=O)O)C(=O)N[C@@H](C)C(=O)N[C@@H](CO)C(=O)N1CCC[C@H]1C(=O)N[C@@H](CCC(=O)O)C(=O)N[C@@H](CCC(=O)O)C(=O)N[C@@H](CC(C)C)C(=O)N[C@@H](CCC(N)=O)C(=O)N[C@@H](CCCNC(=N)N)C(=O)N[C@@H](Cc1ccc(O)cc1)C(=O)N[C@@H](Cc1ccc(O)cc1)C(=O)N[C@H](C(=O)N[C@@H](CO)C(=O)N[C@@H](CC(C)C)C(=O)N[C@@H](CCCNC(=N)N)C(=O)N[C@@H](Cc1c[nH]cn1)C(=O)N[C@@H](Cc1ccc(O)cc1)C(=O)N[C@@H](Cc1ccc(O)cc1)C(=O)N[C@@H](CC(N)=O)C(=O)N[C@@H](Cc1c[nH]c2ccccc12)C(=O)N[C@@H](CC(C)C)C(=O)N[C@@H](CCC(N)=O)C(=O)N[C@@H](CCCNC(=N)N)C(=O)N[C@@H](CCC(N)=O)C(=O)N[C@@H](CCCNC(=N)N)C(=O)N[C@@H](Cc1ccc(O)cc1)C(N)=O)C(C)C` [Compound 4, N{alpha-4}-(3-methylbutanoyl)-N{epsilon-7}-[2-(2-{2-[2-(2-{2-[(4S)-4-carboxy-4-(17-carboxyheptadecanamido)butanamido]ethoxy}ethoxy)acetamido]ethoxy}ethoxy)acetamido]-[4A,7K,9E,18Q,22V,28Y,30W,31L,32Q]hPYY (4-36)], the Ki was 1.43 nM.

These data come from patent publication US12559529B2, “NPY2 receptor agonists” (Boehringer Ingelheim International GmbH, priority 2019, dated 2026).
